From ChEMBL document CHEMBL4765478, “Lithocholic Acid Derivatives as Potent Vitamin D Receptor Agonists” (J Med Chem, 2021)
Calls of active or inactive are those of the source. The rule behind the calls is not given here.

What was measured:
[1] = biological target: T1, Vitamin D3 receptor (Homo sapiens, UniProt P11473); assay: Agonist activity at human VDR expressed in African green monkey COS7 cells expressing mouse osteopontin VDRE assessed as induction of receptor transactivation incubated for 16 hrs by luciferase reporter gene assay; format: cell-based
T1 sequence (P11473 whole entry): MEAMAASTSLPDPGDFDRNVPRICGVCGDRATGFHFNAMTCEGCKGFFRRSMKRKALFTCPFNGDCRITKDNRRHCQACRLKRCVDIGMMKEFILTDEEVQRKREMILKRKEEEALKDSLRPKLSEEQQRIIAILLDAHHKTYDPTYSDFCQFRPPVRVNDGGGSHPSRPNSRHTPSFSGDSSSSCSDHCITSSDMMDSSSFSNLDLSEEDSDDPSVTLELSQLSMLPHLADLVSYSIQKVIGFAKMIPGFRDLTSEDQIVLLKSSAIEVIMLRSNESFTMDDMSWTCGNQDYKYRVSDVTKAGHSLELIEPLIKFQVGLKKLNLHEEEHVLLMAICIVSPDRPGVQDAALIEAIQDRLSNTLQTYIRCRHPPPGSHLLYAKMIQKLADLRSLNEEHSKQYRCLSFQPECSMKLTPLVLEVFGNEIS

[2] = biological target: T2, Vitamin D3 receptor (Bos taurus, UniProt Q28037); assay: (§1) Displacement of [3H]-1-alpha,25-(OH)2D3 from bovine thymus VDR incubated for 18 hrs by competitive binding assay
T2 sequence (Q28037 whole entry): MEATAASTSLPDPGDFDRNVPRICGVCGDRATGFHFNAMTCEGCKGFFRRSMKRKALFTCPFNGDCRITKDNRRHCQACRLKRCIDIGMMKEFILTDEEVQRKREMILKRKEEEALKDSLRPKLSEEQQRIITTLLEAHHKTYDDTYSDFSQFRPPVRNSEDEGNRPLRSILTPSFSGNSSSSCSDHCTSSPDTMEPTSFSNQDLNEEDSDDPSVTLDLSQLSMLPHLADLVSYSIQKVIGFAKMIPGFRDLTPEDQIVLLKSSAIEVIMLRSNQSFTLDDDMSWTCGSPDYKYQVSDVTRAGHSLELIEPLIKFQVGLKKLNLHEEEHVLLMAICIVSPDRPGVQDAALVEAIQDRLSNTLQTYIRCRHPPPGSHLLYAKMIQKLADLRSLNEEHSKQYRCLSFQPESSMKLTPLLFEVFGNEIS

[3] = biological target: T3, Vitamin D3 receptor (Bos taurus) (UniProt Q28037); assay: as §1; details: filed as agonist
T3 sequence (whole entry): T2 sequence (Q28037 whole entry)

[4] = biological target: T4, Vitamin D3 receptor (Homo sapiens) (UniProt P11473); assay: Potency index, ratio of EC50 for 1-alpha,25-(OH)2D3 to EC50 for test compound for agonist activity at VDR in human HL60 cells assessed as induction of cell differentiation of promyelocytes to monocytes after 4 days by NBT reduction assay; format: cell-based; details: HL-60, time 4.0 day
T4 sequence (whole entry): T1 sequence (P11473 whole entry)

[5] = biological target: T4, Vitamin D3 receptor (Homo sapiens); assay: Agonist activity at VDR in human HL-60 cells assessed as induction of cell differentiation of promyelocytes to monocytes at 0.1 nM after 4 days by NBT reduction assay; format: cell-based; details: filed as agonist, time 4.0 day
[6] = biological target: T4, Vitamin D3 receptor (Homo sapiens); assay: Potency index, ratio of EC50 for lithocholic acid to EC50 for test compound for agonist activity at VDR in human HL60 cells assessed as induction of cell differentiation of promyelocytes to monocytes after 4 days by NBT reduction assay; format: cell-based; details: HL-60, time 4.0 day
[7] = biological target: T1, Vitamin D3 receptor; assay: Agonist activity at human VDR expressed in HEK293 cells expressing mouse osteopontin VDRE assessed as induction of receptor transactivation incubated for 16 hrs by luciferase reporter gene assay; format: cell-based
[8] = biological target: T4, Vitamin D3 receptor (Homo sapiens); assay: Agonist activity at VDR in human HL-60 cells assessed as induction of cell differentiation of promyelocytes to monocytes at 1 uM after 4 days by NBT reduction assay; format: cell-based; details: filed as agonist, time 4.0 day

With `C[C@H](CCC(=O)O)[C@H]1CC[C@H]2[C@@H]3CC[C@@H]4C[C@H](CC(C)(C)O)CC[C@]4(C)[C@H]3CC[C@]12C` the EC50 [1] was 1 nM, the IC50 [2] was 2.09 nM and the Activity [3] was “Dose-dependent effect”. The Ratio EC50 [4] was 3, the Activity [5] was “Active” and the Ratio EC50 [6] was < 10000. For the same compound, the EC50 [7] was 0.15 nM.

For `C[C@H](CCC(=O)O)[C@H]1CC[C@H]2[C@@H]3CC[C@@H]4C[C@H](OS(C)(=O)=O)CC[C@]4(C)[C@H]3CC[C@]12C`, the Activity [8] was “Active”.

In the case of `C[C@H](CCC(=O)O)[C@H]1CC[C@H]2[C@@H]3CC[C@@H]4C[C@H](C(C)(C)O)CC[C@]4(C)[C@H]3CC[C@]12C`, the Activity [8] is reported as “Active”.

In the case of `C[C@H](CCC(=O)O)[C@H]1CC[C@H]2[C@@H]3CC[C@@H]4C[C@@H](CC(C)(C)O)CC[C@]4(C)[C@H]3CC[C@]12C`, the EC50 [1] is reported as 0.24 nM, the IC50 [2] is reported as 67.3 nM and the Activity [3] is reported as “Dose-dependent effect”. For the same compound, the EC50 [7] was 0.014 nM.

With `CC(=O)O[C@@H]1CC[C@@]2(C)[C@H](CC[C@@H]3[C@@H]2CC[C@]2(C)[C@@H]([C@H](C)CCC(=O)O)CC[C@@H]32)C1` the Activity [8] was “Active”.
